Assay results taken from ChEMBL document CHEMBL2150876, “Cosmomycin C inhibits signal transducer and activator of transcription 3 (STAT3) pathways in MDA-MB-468 breast cancer cell” (Bioorg Med Chem, 2011).
Activity calls are given as the source filed them. The calls are words filed in the database; no cut-off is given here.

How the values were obtained:
[1] = target: Signal transducer and activator of transcription 3 (Homo sapiens) (UniProt P40763); assay: Suppression of STAT3 mediated Mcl-1 expression in human MDA-MB-468 cells assessed as complete inhibition at 200 nM by immunoblotting assay; format: cell-based
Sequence of Signal transducer and activator of transcription 3 (Homo sapiens) (P40763 whole entry): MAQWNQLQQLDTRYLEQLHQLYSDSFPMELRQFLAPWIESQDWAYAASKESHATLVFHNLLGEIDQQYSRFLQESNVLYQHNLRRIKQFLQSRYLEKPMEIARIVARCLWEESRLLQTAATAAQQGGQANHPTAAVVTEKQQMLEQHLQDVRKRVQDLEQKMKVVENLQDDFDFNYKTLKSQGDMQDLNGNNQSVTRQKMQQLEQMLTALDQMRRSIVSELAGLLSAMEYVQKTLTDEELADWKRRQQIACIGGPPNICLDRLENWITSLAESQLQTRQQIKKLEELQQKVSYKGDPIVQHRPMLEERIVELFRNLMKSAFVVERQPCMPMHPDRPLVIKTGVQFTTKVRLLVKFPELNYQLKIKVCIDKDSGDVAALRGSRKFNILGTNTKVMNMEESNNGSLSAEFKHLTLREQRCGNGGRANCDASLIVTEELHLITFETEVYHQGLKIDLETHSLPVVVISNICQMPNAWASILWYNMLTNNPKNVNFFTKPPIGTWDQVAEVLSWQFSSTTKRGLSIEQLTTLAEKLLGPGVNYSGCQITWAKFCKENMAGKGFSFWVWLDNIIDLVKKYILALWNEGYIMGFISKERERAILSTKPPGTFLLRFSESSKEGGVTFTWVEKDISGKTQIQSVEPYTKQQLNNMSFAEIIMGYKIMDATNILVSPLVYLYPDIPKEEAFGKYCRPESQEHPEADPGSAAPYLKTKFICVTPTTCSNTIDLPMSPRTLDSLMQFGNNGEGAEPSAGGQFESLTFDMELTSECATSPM

[2] = target: Signal transducer and activator of transcription 3 (Homo sapiens) (UniProt P40763); assay: Suppression of STAT3 mediated Bcl-XL expression in human MDA-MB-468 cells assessed as complete inhibition at 200 nM by immunoblotting assay; format: cell-based
[3] = target: Signal transducer and activator of transcription 3 (Homo sapiens) (UniProt P40763); assay: Inhibition of translocation of STAT3 into nucleus in human MDA-MB-468 cells at 200 nM after 24 hrs […] by immunoblotting method; format: cell-based
[4] = target: Signal transducer and activator of transcription 3 (Homo sapiens) (UniProt P40763); assay: Suppression of STAT3 mediated cyclinD1 expression in human MDA-MB-468 cells at G0/G1 phase by immunoblotting assay; format: cell-based
[5] = test system: MDA-MB-468; assay: Induction apoptosis in human MDA-MB-468 cells assessed as procaspase-3-mediated PARP cleavage after 24 hrs by Western blotting method; format: functional, cell-based
[6] = test system: MDA-MB-468; assay: Effect on STAT3 protein level in human MDA-MB-468 cells after 24 hrs by Western blot analysis; format: functional, cell-based
[7] = test system: MDA-MB-468; assay: Cell cycle arrest in human MDA-MB-468 cells assessed as accumulation at G0/G1 phase at 50 nM after 24 hrs using propidium iodide staining by FACS flow cytometry (reference value: 49.13%); format: functional
[8] = test system: MDA-MB-468; assay: Cell cycle arrest in human MDA-MB-468 cells assessed as accumulation at S phase at 50 nM after 24 hrs using propidium iodide staining by FACS flow cytometry (reference value: 12.46%); format: functional
[9] = test system: MDA-MB-468; assay: Cell cycle arrest in human MDA-MB-468 cells assessed as accumulation at G2/M phase at 50 nM after 24 hrs using propidium iodide staining by FACS flow cytometry (reference value: 31.39%); format: functional
[10] = test system: MDA-MB-468; assay: Cell cycle arrest in human MDA-MB-468 cells assessed as accumulation at subG1 phase at 50 nM after 24 hrs using propidium iodide staining by FACS flow cytometry (reference value: 7.01%); format: functional
[11] = test system: MDA-MB-468; assay: Cell cycle arrest in human MDA-MB-468 cells assessed as accumulation at G0/G1 phase at 200 nM after 24 hrs using propidium iodide staining by FACS flow cytometry (reference value: 49.13%); format: functional
[12] = test system: MDA-MB-468; assay: Cell cycle arrest in human MDA-MB-468 cells assessed as accumulation at S phase at 200 nM after 24 hrs using propidium iodide staining by FACS flow cytometry (reference value: 12.46%); format: functional
[13] = test system: MDA-MB-468; assay: Cell cycle arrest in human MDA-MB-468 cells assessed as accumulation at G2/M phase at 200 nM after 24 hrs using propidium iodide staining by FACS flow cytometry (reference value: 31.39%); format: functional
[14] = test system: MDA-MB-468; assay: Cell cycle arrest in human MDA-MB-468 cells assessed as accumulation at subG1 phase at 200 nM after 24 hrs using propidium iodide staining by FACS flow cytometry (reference value: 7.01%); format: functional
[15] = test system: MDA-MB-468; assay: Cell cycle arrest in human MDA-MB-468 cells assessed as accumulation at G0/G1 phase at 500 nM after 24 hrs using propidium iodide staining by FACS flow cytometry (reference value: 49.13%); format: functional
[16] = test system: MDA-MB-468; assay: Cell cycle arrest in human MDA-MB-468 cells assessed as accumulation at S phase at 500 nM after 24 hrs using propidium iodide staining by FACS flow cytometry (reference value: 12.46%); format: functional
[17] = test system: MDA-MB-468; assay: Cell cycle arrest in human MDA-MB-468 cells assessed as accumulation at G2/M phase at 500 nM after 24 hrs using propidium iodide staining by FACS flow cytometry (reference value: 31.39%); format: functional
[18] = test system: MDA-MB-468; assay: Cell cycle arrest in human MDA-MB-468 cells assessed as accumulation at subG1 phase at 500 nM after 24 hrs using propidium iodide staining by FACS flow cytometry (reference value: 7.01%); format: functional
[19] = target: Signal transducer and activator of transcription 3 (Homo sapiens) (UniProt P40763); assay: Inhibition of STAT3 expressed in human HeLa cells after 24 hrs by renilla dual-luciferase reporter gene assay; format: cell-based
[20] = test system: MDA-MB-468; assay: Cytotoxicity against human MDA-MB-468 cells assessed as cell viability after 24 hrs by WST1 assay; format: functional, cell-based
[21] = test system: DU-145; assay: Cytotoxicity against human DU145 cells assessed as cell viability after 24 hrs by WST1 assay; format: functional, cell-based
[22] = test system: MCF7; assay: Cytotoxicity against human MCF7 cells assessed as cell viability at 10 to 500 nM after 24 hrs by WST1 assay; format: functional, cell-based
[23] = test system: HCT-116; assay: Cytotoxicity against human HCT116 cells assessed as cell viability at 10 to 500 nM after 24 hrs by WST1 assay; format: functional, cell-based
[24] = target: Signal transducer and activator of transcription 3 (Homo sapiens) (UniProt P40763); assay: Inhibition of STAT3 phosphorylation at Tyr705 in human MDA-MB-468 cells after 24 hrs by Western blot analysis; format: cell-based
[25] = target: Signal transducer and activator of transcription 3 (Homo sapiens) (UniProt P40763); assay: Inhibition of STAT3 phosphorylation at Tyr705 in human MDA-MB-468 cells at 500 nM after 24 hrs by Western blot analysis; format: cell-based
[26] = target: Signal transducer and activator of transcription 3 (Homo sapiens) (UniProt P40763); assay: Inhibition of STAT3 phosphorylation at Ser727 in human MDA-MB-468 cells after 24 hrs by Western blot analysis; format: cell-based
[27] = target: Signal transducer and activator of transcription 3 (Homo sapiens) (UniProt P40763); assay: Inhibition of translocation of STAT3 into nucleus in human MDA-MB-468 cells assessed as localization in cytoplasm at 200 nM after 24 hrs […] by Western blotting method; format: cell-based
[28] = target: Signal transducer and activator of transcription 3 (Homo sapiens) (UniProt P40763); assay: Suppression of STAT3 mediated Mcl-1 expression in human MDA-MB-468 cells by immunoblotting assay; format: cell-based
[29] = target: Signal transducer and activator of transcription 3 (Homo sapiens) (UniProt P40763); assay: Suppression of STAT3 mediated VEGF expression in human MDA-MB-468 cells by immunoblotting assay; format: cell-based
[30] = target: Signal transducer and activator of transcription 3 (Homo sapiens) (UniProt P40763); assay: Suppression of STAT3 mediated cyclinD1 expression in human MDA-MB-468 cells by immunoblotting assay; format: cell-based
[31] = target: Signal transducer and activator of transcription 3 (Homo sapiens) (UniProt P40763); assay: Suppression of STAT3 mediated Bcl-XL expression in human MDA-MB-468 cells by immunoblotting assay; format: cell-based
[32] = target: Signal transducer and activator of transcription 3 (Homo sapiens) (UniProt P40763); assay: Suppression of STAT3 mediated survivin expression in human MDA-MB-468 cells by immunoblotting assay; format: cell-based

CC[C@@]1(O)C[C@H](O[C@H]2C[C@H](N(C)C)[C@@H](O[C@H]3C[C@H](O)[C@@H](O[C@H]4CC[C@H](O)[C@H](C)O4)[C@H](C)O3)[C@H](C)O2)c2c(O)c3c(c(O)c2[C@H]1O[C@H]1C[C@H](N(C)C)[C@@H](O[C@H]2CC[C@H](O[C@H]4CC[C@H](O)[C@H](C)O4)[C@H](C)O2)[C@H](C)O1)C(=O)c1cccc(O)c1C3=O [COSMOMYCIN C]
Activity [1]: Active
Activity [2]: Active
Activity [3]: Active
Activity [4]: Active
Activity [5]: Active
Activity [6]: inactive
Activity [7]: 54.64%
Activity [8]: 10.52%
Activity [9]: 26.91%
Activity [10]: 7.93%
Activity [11]: 59.53%
Activity [12]: 8.82%
Activity [13]: 22.18%
Activity [14]: 9.47%
Activity [15]: 49.9%
Activity [16]: 8.78%
Activity [17]: 15.81%
Activity [18]: 25.52%
inhibition [19]: Dose-dependent effect
Activity [20]: Dose-dependent effect
IC50 ([20]; MDA-MB-468, 24 h): 0.21 µM
Activity [21]: Dose-dependent effect
Activity [22]: inactive
Activity [23]: inactive
inhibition [24]: Dose-dependent effect
inhibition [25]: Active
inhibition [26]: inactive
inhibition [27]: Active
Activity [28]: Dose-dependent effect
Activity [29]: Dose-dependent effect
Activity [30]: Dose-dependent effect
Activity [31]: Dose-dependent effect
Activity [32]: Dose-dependent effect

CC[C@@]1(O)CCc2c(O)c3c(c(O)c2[C@H]1O[C@H]1C[C@H](N(C)C)[C@@H](O[C@H]2C[C@H](O)[C@@H](O[C@H]4CC[C@H](O)[C@H](C)O4)[C@H](C)O2)[C@H](C)O1)C(=O)c1cccc(O)c1C3=O
Activity [6]: inactive
inhibition [19]: inactive
Activity [20]: inactive
Activity [21]: inactive
Activity [22]: inactive
Activity [23]: inactive
inhibition [24]: inactive

CO[C@H](C(=O)[C@@H](O)[C@@H](C)O)[C@@H]1Cc2cc3cc(O[C@H]4C[C@@H](O[C@@H]5C[C@@H](O)[C@H](O)[C@@H](C)O5)[C@H](O)[C@@H](C)O4)c(C)c(O)c3c(O)c2C(=O)[C@H]1O[C@H]1C[C@@H](O[C@@H]2C[C@@H](O)[C@@H](O[C@@H]3C[C@](C)(O)[C@H](O)[C@@H](C)O3)[C@@H](C)O2)[C@H](O)[C@@H](C)O1
inhibition [19]: inactive
